Results from article PMC8672434 (Journal of the American Chemical Society, 2021).
“And” between values parts separate entries of the source, which are not always exact repeats. Equal values may be shown once. Read-outs that look alike come from different tables or passages of the source.

Columns and labels:
SARS-CoV-2 [1] = assay type: cell-based; conditions: read-out: Antiviral EC50 against SARS-CoV-2 in Calu-3 cells
SARS-CoV-2 M^pro [2] = target: T1, SARS-CoV-2 M^pro (Severe acute respiratory syndrome coronavirus 2, UniProt P0DTD1); test: Thermal shift-binding assay; conditions: result in words
SARS-CoV-2 [3] = assay type: cell-based; conditions: read-out: Antiviral EC50 against SARS-CoV-2 in Vero E6 cells
SARS-CoV-2 M^pro [4] = target: T1, SARS-CoV-2 M^pro; assay type: biochemical; conditions: read-out: SARS-CoV-2 M^pro IC50
calpain I = calpain I (Homo sapiens, UniProt P07384); test: Host protease selectivity, FRET-based enzymatic assay: calpain I; assay type: biochemical
cathepsin B = cathepsin B (Homo sapiens, UniProt P07858); test: Host protease selectivity, FRET-based enzymatic assay: cathepsin B; assay type: biochemical
SARS-CoV-2 M^pro [5] = target: T1, SARS-CoV-2 M^pro; assay type: cell-based; conditions: read-out: FlipGFP M^pro assay EC50
cathepsin K = cathepsin K (Homo sapiens, UniProt P43235); test: Host protease selectivity, FRET-based enzymatic assay: cathepsin K; assay type: biochemical
trypsin = test: Host protease selectivity, FRET-based enzymatic assay: trypsin; assay type: biochemical
caspase-3 = caspase-3 (Homo sapiens, UniProt P42574); test: Host protease selectivity, FRET-based enzymatic assay: caspase-3; assay type: biochemical; conditions: for Inhibition of caspase-3 (in words): host protease selectivity
SARS-CoV-2 M^pro [6] = target: T1, SARS-CoV-2 M^pro; assay type: binding; conditions: native mass spectrometry
cathepsin L = cathepsin L (Homo sapiens, UniProt P07711); test: Host protease selectivity, FRET-based enzymatic assay: cathepsin L; assay type: biochemical; conditions: for Inhibition of cathepsin L (in words): host protease selectivity
SARS-CoV-2 M^pro [7] = target: T1, SARS-CoV-2 M^pro; test: Fast dilution experiment; assay type: biochemical; conditions: 10 μM M^pro pre-incubated with 10 μM compound for 2 h at 30 °C, diluted 100-fold; compared with DMSO control

cathepsin K, sequence (P43235 115-329): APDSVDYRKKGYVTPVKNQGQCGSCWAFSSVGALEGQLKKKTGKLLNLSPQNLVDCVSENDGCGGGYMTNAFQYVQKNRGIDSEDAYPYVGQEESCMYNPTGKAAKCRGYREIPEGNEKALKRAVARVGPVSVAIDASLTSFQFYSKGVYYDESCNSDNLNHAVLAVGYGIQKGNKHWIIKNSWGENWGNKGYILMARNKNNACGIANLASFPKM
caspase-3, sequence (P42574 29-175): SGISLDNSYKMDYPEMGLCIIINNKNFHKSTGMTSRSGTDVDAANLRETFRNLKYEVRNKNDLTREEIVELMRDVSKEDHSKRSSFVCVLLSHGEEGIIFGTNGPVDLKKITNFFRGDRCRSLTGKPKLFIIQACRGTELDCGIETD
caspase-3, sequence (P42574 176-277): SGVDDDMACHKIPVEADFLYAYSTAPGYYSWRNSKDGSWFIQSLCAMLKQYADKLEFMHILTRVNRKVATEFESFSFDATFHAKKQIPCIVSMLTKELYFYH
calpain I, sequence (P07384 whole entry): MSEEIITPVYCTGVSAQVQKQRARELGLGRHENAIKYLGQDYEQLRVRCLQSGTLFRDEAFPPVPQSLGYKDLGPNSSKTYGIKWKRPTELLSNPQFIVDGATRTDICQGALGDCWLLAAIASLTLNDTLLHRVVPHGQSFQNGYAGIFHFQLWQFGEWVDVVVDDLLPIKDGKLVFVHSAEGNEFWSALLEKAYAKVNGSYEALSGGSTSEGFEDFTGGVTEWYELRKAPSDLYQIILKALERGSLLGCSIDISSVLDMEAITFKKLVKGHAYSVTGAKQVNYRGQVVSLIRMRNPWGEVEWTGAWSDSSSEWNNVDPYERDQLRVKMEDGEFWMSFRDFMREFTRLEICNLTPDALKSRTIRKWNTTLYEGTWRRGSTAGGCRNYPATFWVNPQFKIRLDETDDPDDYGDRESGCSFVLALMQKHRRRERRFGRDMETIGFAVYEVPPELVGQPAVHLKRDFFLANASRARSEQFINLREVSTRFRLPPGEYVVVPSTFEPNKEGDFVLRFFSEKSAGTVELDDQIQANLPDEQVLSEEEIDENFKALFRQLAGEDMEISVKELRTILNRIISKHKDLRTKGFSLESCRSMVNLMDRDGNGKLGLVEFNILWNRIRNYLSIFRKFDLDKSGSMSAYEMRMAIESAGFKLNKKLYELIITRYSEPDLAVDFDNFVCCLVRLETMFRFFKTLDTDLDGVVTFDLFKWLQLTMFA
calpain I, sequence (P04632 whole entry, further chain): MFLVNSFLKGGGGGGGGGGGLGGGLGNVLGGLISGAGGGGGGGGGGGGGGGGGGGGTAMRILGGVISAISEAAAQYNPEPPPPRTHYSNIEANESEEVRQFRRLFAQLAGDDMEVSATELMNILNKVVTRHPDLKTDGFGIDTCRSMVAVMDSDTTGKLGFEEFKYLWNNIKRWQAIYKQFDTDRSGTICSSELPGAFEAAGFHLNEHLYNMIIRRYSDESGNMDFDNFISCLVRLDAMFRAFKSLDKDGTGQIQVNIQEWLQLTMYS
cathepsin L, sequence (P07711 114-333 limits assumed): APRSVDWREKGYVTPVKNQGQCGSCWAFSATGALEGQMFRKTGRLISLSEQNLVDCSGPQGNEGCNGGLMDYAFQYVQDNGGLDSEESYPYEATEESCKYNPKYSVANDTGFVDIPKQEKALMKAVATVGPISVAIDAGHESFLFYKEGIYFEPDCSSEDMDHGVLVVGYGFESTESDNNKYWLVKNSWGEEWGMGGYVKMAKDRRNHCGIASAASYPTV

In the case of `C[C@H](NC(=O)[C@@H](c1cccnc1)N(C(=O)C(Cl)Cl)c1ccc(-c2ccccc2)cc1)c1ccc(Br)cc1` [Jun9-90-3R], the EC50 (SARS-CoV-2 [1]) is reported as 2 µM, the “Tm shift of SARS-CoV-2 M^pro upon binding” value (“Tm shift” below) (SARS-CoV-2 M^pro [2]) is reported as “stabilized” and the EC50 (SARS-CoV-2 [3]) is reported as 2.07 µM.
`C[C@H](NC(=O)[C@H](c1cccnc1)N(C(=O)C(Br)Br)c1ccc(-c2ccccc2)cc1)c1ccccc1` [Jun9-89-2S] was tested, and the CC50 (Vero E6 cells) was 4.57 µM and the IC50 (SARS-CoV-2 M^pro [4]; FRET-based enzymatic assay) was 2.44 µM.
In the case of `C[C@H](NC(=O)[C@H](c1cccnc1)N(C(=O)C(Cl)Cl)c1ccc(-c2ccccc2)cc1)c1ccc(Br)cc1` [Jun9-90-3S], the IC50 (SARS-CoV-2 M^pro [4]) is reported as over 20 µM.
For `C[C@H](NC(=O)C(c1cccnc1)N(C(=O)C(Cl)(Cl)Br)c1ccc(-c2ccccc2)cc1)c1ccccc1` (stereo partly drawn) [Jun9-89-3], the CC50 (Vero E6 cells) was 32.4 µM.
In the case of `C[C@H](NC(=O)[C@@H](c1cccnc1)N(C(=O)C(Cl)Cl)c1ccc(-c2ccccc2)cc1)c1ccccc1` [Jun9-62-2R], the “Inhibition of calpain I (in words)” value (calpain I) is reported as “did not show potent inhibition”, the “Inhibition of cathepsin B (in words)” value (cathepsin B) is reported as “did not show potent inhibition” and the EC50 (SARS-CoV-2 M^pro [5]) is reported as 0.96 µM. For the same compound, the “Inhibition of cathepsin K (in words)” value (cathepsin K) was “did not show potent inhibition”, the “Inhibition of trypsin (in words)” value (trypsin) was “did not show potent inhibition” and the “Inhibition of caspase-3 (in words)” value (caspase-3) was “did not show potent inhibition”. For the same compound, the EC50 (SARS-CoV-2 [3]) was 0.9 µM, the “Mass modification of M^pro (covalent adduct)” value (from here on “Mass modification of M^pro”) (SARS-CoV-2 M^pro [6]) was 482 Da and the “Inhibition of cathepsin L (in words)” value (cathepsin L) was “did not show potent inhibition”.
In the case of `C[C@H](NC(=O)[C@@H](c1cccnc1)N(C(=O)c1ccco1)c1ccc(-c2ccccc2)cc1)c1ccccc1` [23R], the “Recovered enzymatic activity after 100-fold dilution” value (SARS-CoV-2 M^pro [7]) is reported as “nearly complete recovery of enzymatic activity”.
With `CC(C)C[C@H](NC(=O)OCc1ccccc1)C(=O)N[C@@H](CC1CCNC1=O)C(O)S(=O)(=O)[O-].[Na+]` (stereo partly drawn) [GC-376, reference compound] the “Inhibition of calpain I (in words)” value (calpain I) was “potent inhibition”, the “Inhibition of cathepsin B (in words)” value (cathepsin B) was “potent inhibition” and the “Inhibition of cathepsin K (in words)” value (cathepsin K) was “potent inhibition”. The IC50 (trypsin; read-out: Trypsin IC50, FRET-based enzymatic assay) was […], the IC50 (caspase-3; read-out: Caspase-3 IC50, FRET-based enzymatic assay) was over 20 µM and the EC50 (SARS-CoV-2 [3]) was 1.51 µM. For the same compound, the “Inhibition of cathepsin L (in words)” value (cathepsin L) was “potent inhibition”.
Compound `CC#CC(=O)N(c1ccc(-c2ccccc2)cc1)C(C(=O)N[C@@H](C)c1ccccc1)c1cccnc1` (stereo partly drawn) [Jun9-62-1] has a CC50 (Calu-3 cells) of 47.8 µM and a CC50 (Vero E6 cells) of 18 µM.
For `C[C@H](NC(=O)[C@@H](c1cccnc1)N(C(=O)C(Cl)(Br)Br)c1ccc(-c2ccccc2)cc1)c1ccccc1` [Jun9-89-4R], the CC50 (Vero E6 cells) was 8.41 µM and the “Mass modification of M^pro” value (SARS-CoV-2 M^pro [6]) was 481 Da and 561 Da.
Work on `C[C@H](NC(=O)[C@H](c1cccnc1)N(C(=O)C(Cl)Cl)c1ccc(-c2ccccc2)cc1)c1ccccc1` [Jun9-62-2S] yielded an IC50 (SARS-CoV-2 M^pro [4]) of over 20 µM.
Work on `C[C@H](NC(=O)[C@H](c1cccnc1)N(C(=O)C(Br)(Br)Br)c1ccc(-c2ccccc2)cc1)c1ccccc1` [Jun9-88-6S] yielded a CC50 (Vero E6 cells) of 5.99 µM.
`C[C@H](NC(=O)[C@@H](c1cccnc1)N(C(=O)C(Br)(Br)Br)c1ccc(-c2ccccc2)cc1)c1ccccc1` [Jun9-88-6R] was tested, and the “Inhibition of calpain I (in words)” value (calpain I) was “did not show potent inhibition”, the “Inhibition of cathepsin B (in words)” value (cathepsin B) was “did not show potent inhibition” and the “Inhibition of cathepsin K (in words)” value (cathepsin K) was “did not show potent inhibition”. The CC50 (Vero E6 cells) was 5.48 µM, the “Tm shift” value (SARS-CoV-2 M^pro [2]) was “stabilized” and the “Inhibition of caspase-3 (in words)” value (caspase-3) was “did not show potent inhibition”. For the same compound, the EC50 (SARS-CoV-2 [3]) was 0.58 µM, the “Mass modification of M^pro” value (SARS-CoV-2 M^pro [6]) was 526 Da and the “Inhibition of cathepsin L (in words)” value (cathepsin L) was “did not show potent inhibition”. The IC50 (cathepsin L; read-out: Cathepsin L IC50, FRET-based enzymatic assay) was 7.37 µM.
For `C[C@H](NC(=O)[C@@H](c1cccnc1)N(C(=O)C(Br)Br)c1ccc(-c2ccccc2)cc1)c1ccccc1` [Jun9-89-2R], the CC50 (Vero E6 cells) was 8.94 µM, the IC50 (SARS-CoV-2 M^pro [4]; FRET-based enzymatic assay) was 0.08 µM and the “Mass modification of M^pro” value (SARS-CoV-2 M^pro [6]) was 526 Da.
In the case of `C[C@@H](CCc1ccccc1)NC(=O)[C@@H](c1cccnc1)N(C(=O)C(Cl)Cl)c1ccc(-c2ccccc2)cc1` [Jun9-90-4R], the “Tm shift” value (SARS-CoV-2 M^pro [2]) is reported as “stabilized” and the EC50 (SARS-CoV-2 [3]) is reported as 1.1 µM.
